Series [1] addresses T1, CRTH2 (Homo sapiens (Human), UniProt Q9Y5Y4). The series can be described thus: CRTH2 inhibitory activity in human eosinophil (PGD2 induced eosinophil shape change). It counts as cell-based. As to conditions: human peripheral blood, 40 nM PGD2, forward scatter; read-out: IC50, inhibition of PGD2 induced eosinophil shape change. On the procedure: CRTH2 inhibitory activity in human eosinophil was determined as inhibitory activity of PGD2 induced eosinophil shape change.
Human peripheral blood was mixed with compounds of the present invention at 37° C. After 5 min, the blood was treated with 40 nM of PGD2 for 10 min and fixed. The blood was hemolyzed and centrifuged. Blood cells were resuspended in PBS and measured forward scatter (FS) using flow cytometer (FACSAria). Inhibition ratio was defined by comparing FS with and without compound, and IC50 for each compound was calculated from inhibitory curve.

The target of a further series is Human DP1 receptor (Homo sapiens (Human), UniProt Q13258). The series can be described thus: Human DP1 inhibitory activity in DP1-expressing cell (PGD2-induced cAMP). It counts as cell-based. As for the experimental part:
Compounds were categorized as AA (cAMP is less than 100 nM) and A (cAMP is more than 100 nM and less than 5000 nM) as shown in Table 99 and 100.

For another series, the target named is CYP3A4 (Homo sapiens (Human), UniProt P08684). The series can be described thus: CYP inhibition test, terfenedine hydroxylation. It counts as in vitro ADME. Particulars: pooled human hepatic microsome, 1 μmol/L terfenedine. The source says:
(§1) Using commercially available pooled human hepatic microsome, and employing, as markers, 7-ethoxyresorufin O-deethylation (CYP1A2), tolbutamide methyl-hydroxylation (CYP2C9), mephenyloin 4′-hydroxylation (CYP2C19), dextromethorphan O-demethylation (CYP2D6), and terfenedine hydroxylation as typical substrate metabolism reactions of human main five CYP enzyme forms (CYP1A2, 2C9, 2C19, 2D6, 3A4), an inhibitory degree of each metabolite production amount by a compound of the present compound was assessed.
(§2) The reaction conditions were as follows: substrate, 0.5 μmol/L ethoxyresorufin (CYP1A2), 100 μmol/L tolbutamide (CYP2C9), 50 μmol/L S-mephenyloin (CYP2C19), 5 μmol/L dextromethorphan (CYP2D6), 1 μmol/L terfenedine (CYP3A4); reaction time, 15 minutes; reaction temperature, 37° C.; enzyme, pooled human hepatic microsome 0.2 mg protein/mL; concentration of a compound of the present invention, 1, 5, 10, 20 μmol/L (four points).
(§3) Each five kinds of substrates, human hepatic microsome, or a compound of the present invention in 50 mM Hepes buffer as a reaction mixture was added to a 96-well plate at the composition as described above, NADPH, as a cofactor was added to initiate metabolism reactions as markers and. After the incubation at 37° C. for 15 minutes, a methanol/acetonitrile=1/1 (v/v) solution was added to stop the reaction. After the centrifugation at 3000 rpm for 15 minutes, resorufin (CYP1A2 metabolite) in the supernatant was quantified by a fluorescent multilabel counter and tolbutamide hydroxide (CYP2C9 metabolite), mephenyloin 4′ hydroxide (CYP2C19 metabolite), dextrorphan (CYP2D6 metabolite), and terfenadine alcohol (CYP3A4 metabolite) were quantified by LC/MS/MS.

The target in series [2] is T1, CRTH2. The series can be described thus: CRTH2 inhibitory activity in CRTH2-expressing cells (PGD2-induced intracellular calcium increase, K562). It counts as cell-based. As to conditions: 200 nM PGD2, read-out: IC50, inhibition of intracellular calcium concentration increase induced by PGD2. On the procedure:
CRTH2 inhibitory activities of compounds were determined as inhibition activity of intra-cellular calcium concentration increase induced by PGD2 in CRTH2-expressing cells.
CRTH2-expressing K562 cells were suspended at concentration of 2×10^6 cells/ml in buffer (10 mM HEPES, pH 7.4, 0.1% Bovine serum albumin). Cells were incubated with […] (4 μM) for 30 min at room temperature. Cells were washed, resuspended and mixed with various concentration of compounds of the present invention. After 2 min, cells were treated with 200 nM of PGD2. Then intracellular calcium concentration was measured using intracellular ion analyzer (FDSS3000). Inhibition ratio was defined by comparing intracellular calcium concentration increase with and without compound, and IC50 for each compound was calculated from inhibitory curve.

Series [3] addresses T1, CRTH2. Kind of series: CRTH2 receptor binding inhibitory activity ([3H]-PGD2 displacement, membranes of CRTH2-expressing K562 cell). As to conditions: [3H]-PGD2 displacement, membrane of CRTH2-expressing K562 cell, read-out: Ki. The method, boiled down:
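Incubation ran 60 min at room temperature using 20 μg/well membrane from CRTH2-expressing K562 cells in pH 7.4 Tris/HCl (50 mM) with 10 mM MgCl2.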

The target of another series is CYP2C19 (Homo sapiens (Human), UniProt P33261). The series can be described thus: CYP inhibition test, mephenyloin 4'-hydroxylation. Particulars: pooled human hepatic microsome, 50 μmol/L S-mephenyloin. It counts as in vitro ADME.
Sequence of CYP2C19 (P33261 whole entry): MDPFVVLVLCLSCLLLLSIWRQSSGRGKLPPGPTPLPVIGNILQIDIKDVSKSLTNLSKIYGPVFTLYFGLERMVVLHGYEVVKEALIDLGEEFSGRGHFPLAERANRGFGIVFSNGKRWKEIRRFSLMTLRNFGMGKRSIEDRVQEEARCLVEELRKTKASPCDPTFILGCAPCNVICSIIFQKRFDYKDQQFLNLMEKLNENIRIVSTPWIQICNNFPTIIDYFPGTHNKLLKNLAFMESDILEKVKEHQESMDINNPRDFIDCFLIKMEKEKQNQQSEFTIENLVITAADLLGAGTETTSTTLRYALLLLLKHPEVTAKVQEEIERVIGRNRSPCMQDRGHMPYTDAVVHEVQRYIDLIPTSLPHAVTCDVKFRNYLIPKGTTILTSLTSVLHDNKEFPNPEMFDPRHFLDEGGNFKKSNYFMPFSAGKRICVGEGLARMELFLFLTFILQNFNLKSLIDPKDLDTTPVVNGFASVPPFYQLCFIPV
Description: as §1, §2, §3

A short description of series [4]: Solubility test (1% DMSO addition, artificial intestinal juice pH 6.8). It counts as physicochemical. As to conditions: fassgf or other biorelevant, kinetic from dmso stock, artificial intestinal juice pH 6.8, 16 hours at 25° C. On the procedure: A 10 mmol/L solution of the compound of the present invention is prepared with DMSO, and 6 μL of the compound solution is added to 594 μL of an artificial intestinal juice (water and 118 mL of 0.2 mol/L NaOH reagent are added to 250 mL of 0.2 mol/L potassium dihydrogen phosphate reagent to reach 1000 mL) with a pH of 6.8. The mixture is left standing for 16 hours at 25° C., and the mixture is vacuum-filtered. The filtrate is two-fold diluted with methanol/water=1/1 (V/V), and the compound concentration in the filtrate is measured with HPLC or LC/MS/MS by the absolute calibration method.

Series [5] is described as follows: Metabolism stability test. It counts as in vitro ADME. As to conditions: human liver microsomes, 30 minutes, 37° C., NADPH, 0.5 μmol/L of the compound. As for the experimental part:
Using a commercially available pooled human hepatic microsomes, a compound of the present invention was reacted for a constant time, a remaining rate was calculated by comparing a reacted sample and an unreacted sample, thereby, a degree of metabolism in liver was assessed.
A reaction was performed (oxidative reaction) at 37° C. for 0 minute or 30 minutes in the presence of 1 mmol/L NADPH in 0.2 mL of a buffer (50 mmol/L Tris-HCl pH 7.4, 150 mmol/L potassium chloride, 10 mmol/L magnesium chloride) containing 0.5 mg protein/mL of human liver microsomes. After the reaction, 50 μL of the reaction mixture was added to 100 μL of a methanol/acetonitrile=1/1 (v/v), mixed and centrifuged at 3000 rpm for 15 minutes. The compound of the present invention in the supernatant was quantified by LC/MS/MS, and a remaining amount of the compound of the present invention after the reaction was calculated, letting a compound amount at 0 minute reaction time to be 100%. Glucuronidation reaction was in the presence of 5 mM UDP-glucuronic acid in place of NADPH, followed by similar operations.
(Liver microsomes are a subcellular fraction often used to study metabolism.)

Where [6] appears, read: IC50 of PGD2 (60 nM)-induced cAMP increase, human DP1 receptor expressing Jurkut cell.
Setting [7] is: category of cAMP IC50, human DP1 receptor expressing Jurkut cell.
The mark [8] stands for this setting: CRTH2 receptor binding, categorized AAAA/AAA.

Where two headings read alike, the source gives them in different places. Some results are limits rather than exact numbers.

In general, Ki refers to a measure of affinity in units of concentration, obtained from inhibition or displacement. Usually solubility stands for how much of the substance goes into solution per volume. The low end stands for little dissolved substance, the high end for much dissolved substance.

T1 sequence (Q9Y5Y4 whole entry): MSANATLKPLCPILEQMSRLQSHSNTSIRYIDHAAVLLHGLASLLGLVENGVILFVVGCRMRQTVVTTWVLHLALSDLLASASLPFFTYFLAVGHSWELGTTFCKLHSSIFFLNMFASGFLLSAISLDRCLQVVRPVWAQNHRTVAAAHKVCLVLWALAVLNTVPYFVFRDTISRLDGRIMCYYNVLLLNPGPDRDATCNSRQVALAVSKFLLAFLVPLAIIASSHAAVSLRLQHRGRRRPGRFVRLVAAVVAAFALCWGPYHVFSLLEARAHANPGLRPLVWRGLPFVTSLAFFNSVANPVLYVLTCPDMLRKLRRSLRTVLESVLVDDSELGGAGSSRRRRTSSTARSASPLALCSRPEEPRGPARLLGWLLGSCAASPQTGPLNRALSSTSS
Sequence of CYP3A4 (P08684 whole entry): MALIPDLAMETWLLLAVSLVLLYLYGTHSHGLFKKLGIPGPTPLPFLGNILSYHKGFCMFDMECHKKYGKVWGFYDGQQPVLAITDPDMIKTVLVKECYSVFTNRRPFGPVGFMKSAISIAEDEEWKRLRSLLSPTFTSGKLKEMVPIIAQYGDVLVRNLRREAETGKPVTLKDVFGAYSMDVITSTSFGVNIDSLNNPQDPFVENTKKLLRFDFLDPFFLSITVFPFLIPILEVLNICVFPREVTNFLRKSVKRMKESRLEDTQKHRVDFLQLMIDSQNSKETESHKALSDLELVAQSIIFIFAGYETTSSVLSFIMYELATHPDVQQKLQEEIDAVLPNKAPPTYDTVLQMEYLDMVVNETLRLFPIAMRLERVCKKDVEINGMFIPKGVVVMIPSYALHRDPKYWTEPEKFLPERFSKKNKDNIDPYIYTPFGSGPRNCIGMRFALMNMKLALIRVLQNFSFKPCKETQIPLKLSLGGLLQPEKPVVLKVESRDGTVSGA
Sequence of Human DP1 receptor (Q13258 whole entry): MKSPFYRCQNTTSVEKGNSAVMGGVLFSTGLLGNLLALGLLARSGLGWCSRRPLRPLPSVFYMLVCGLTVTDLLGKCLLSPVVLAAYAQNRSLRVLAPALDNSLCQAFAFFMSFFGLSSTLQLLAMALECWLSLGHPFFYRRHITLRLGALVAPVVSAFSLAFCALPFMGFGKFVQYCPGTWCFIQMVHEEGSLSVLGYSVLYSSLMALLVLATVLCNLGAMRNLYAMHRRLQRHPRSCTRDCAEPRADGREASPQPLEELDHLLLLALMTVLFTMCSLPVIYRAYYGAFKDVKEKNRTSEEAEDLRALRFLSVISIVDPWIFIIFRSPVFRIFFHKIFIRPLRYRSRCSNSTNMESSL

Turning to `CC(C)Oc1ccc(S(=O)(=O)N2C[C@H](n3nc(CC(=O)O)c4ccc(F)cc43)C[C@H]2C#N)cc1` [Compound I-7], the IC50 was 0.034 µM on CRTH2 [1]; 0.023 µM at Human DP1 receptor (setting [6]); less than 0.1 µM against Human DP1 receptor (setting [7]); more than 20 µM at CYP3A4; 0.033 µM on CRTH2 [2]; more than 20 µM at CYP2C19. In addition, the Ki on CRTH2 [3] (setting [8]) was less than 0.1 µM. Moreover, the solubility at 16 h in series [4] was more than 50 µM.
On to `CC(C)Oc1ccc(S(=O)(=O)N2C[C@@H](C)[C@@H](n3nc(CC(=O)O)c4ccc(F)cc43)C2)cc1` [Compound I-37], for which the IC50 was 0.015 µM at CRTH2 [1]; 0.01 µM on Human DP1 receptor (setting [6]); less than 0.1 µM against Human DP1 receptor (setting [7]); more than 20 µM on CYP3A4; 0.05 µM on CRTH2 [2]; more than 20 µM against CYP2C19. Moreover, the Ki on CRTH2 [3] was determined as 0.0024 µM. This compound also had a solubility at 16 h in series [4] of more than 50 µM.
`CC(C)Oc1ccc(S(=O)(=O)N2C[C@@H](C)[C@@H](n3nc(CC(=O)O)c4ccc(F)cc43)C2)c(F)c1` [Compound I-52]: the IC50 on Human DP1 receptor (setting [7]) is less than 0.1 µM; against CYP3A4, more than 20 µM; on CRTH2 [2], 0.14 µM; against CYP2C19, more than 20 µM. For the same compound, the Ki on CRTH2 [3] (setting [8]) was less than 0.1 µM; on CRTH2 [3], 0.0051 µM. The “remaining rate after reaction (result heading prints '% inhibition')” value in series [5] turned out to be 97.2%. Also, in series [4], the solubility at 16 h was more than 50 µM.
On to `CC(C)Oc1ccc(S(=O)(=O)N2C[C@@H](C)[C@@H](n3nc(CC(=O)O)c4ccc(F)cc43)C2)cn1` [Compound I-57], for which the IC50 is less than 0.1 µM at Human DP1 receptor (setting [7]), more than 20 µM at CYP3A4, 0.21 µM at CRTH2 [2] and more than 20 µM on CYP2C19. In addition, the Ki is less than 0.1 µM at CRTH2 [3] (setting [8]) and 0.0038 µM at CRTH2 [3]. Further, the “remaining rate after reaction (result heading prints '% inhibition')” value in series [5] came out at 86.9%. The solubility at 16 h in series [4] is more than 50 µM.
For `CCOc1ccc(S(=O)(=O)N2C[C@@H](C)[C@@H](n3nc(CC(=O)O)c4ccccc43)C2)cn1` [Compound I-96], the IC50 at CRTH2 [1] was 0.27 µM; against Human DP1 receptor (setting [6]), 0.04 µM; at Human DP1 receptor (setting [7]) it was less than 0.1 µM; at CYP3A4, more than 20 µM; at CRTH2 [2] it was 0.23 µM; on CYP2C19, more than 20 µM. The results for the Ki at CRTH2 [3] (setting [8]) and on CRTH2 [3] were less than 0.1 µM and 0.037 µM, respectively. In addition, the “remaining rate after reaction (result heading prints '% inhibition')” value in series [5] stood at 99.3%. Further, in series [4], the solubility at 16 h was more than 50 µM.

Values taken from patent publication US9725442B2, “Heterocyclic derivative having PGD2 receptor antagonist activity” (Shionogi & Co., Ltd., priority 2011, dated 2017).
